Data reported in US20070275968A1, “Substituted Biphenyl Derivative” (priority 2004, published 2007).

| melting point | SMILES |
| --- | --- |
| 246 to 248 °C | Cc1cccc(-c2[nH]c(C(C)C)nc2-c2cccc(-c3ccc(S(N)(=O)=O)cc3F)c2)n1 [Example 75, 2-Fluoro-3′-[2-isopropyl-5-(6-methylpyridin-2-yl)-1H-imidazol-4-yl]-1,1′-biphenyl-4-sulfonamide] |
| 119 to 124 °C | Cc1cccc(-c2[nH]c(C(C)C)nc2-c2cccc(-c3ccc(N)cn3)c2)n1 [Example 76, 6-{3-[2-Isopropyl-5-(6-methylpyridin-2-yl)-1H-imidazol-4-yl]phenyl}pyridine-3-amine] |
| 112 to 114 °C | Cc1cccc(-c2[nH]c(C(C)C)nc2-c2cccc(-c3cc[nH]c3)c2)n1 [Example 78, 2-{2-Isopropyl-4-[3-(1H-pyrrol-3-yl)phenyl]-1H-imidazol-5-yl}-6-methylpyridine] |
| 145 to 148 °C | Cc1cccc(-c2[nH]c(C(C)C)nc2-c2cccc(-c3ccc4c(c3)C(=O)CC[S+]4[O-])c2)n1 (stereo not shown) [Example 80, 6-{3-[2-Isopropyl-5-(6-methylpyridin-2-yl)-1H-imidazol-4-yl]phenyl}-2,3-dihydro-4H-thiochromen-4-one 1-oxide] |
| 115 to 119 °C | Cc1cccc(-c2[nH]c(C(C)C)nc2-c2cccc(-c3ccc4c(c3)C(=O)CCS4(=O)=O)c2)n1 [Example 81, 6-{3-[2-Isopropyl-5-(6-methylpyridin-2-yl)-1H-imidazol-4-yl]phenyl}-2,3-dihydro-4H-thiochromen-4-one 1,1-dioxide] |
| 115 to 117 °C | Cc1cccc(-c2[nH]c(C(C)C)nc2-c2cccc(-c3ccc4c(c3)CCCS4)c2)n1 [Example 82, 2-{4-[3-(3,4-Dihydro-2H-thiochromen-6-yl)phenyl]-2-isopropyl-1H-imidazol-5-yl}-6-methylpyridine] |
| 136 to 139 °C | Cc1cccc(-c2[nH]c(C(C)C)nc2-c2cccc(-c3ccc4c(c3)CCC[S+]4[O-])c2)n1 (stereo not shown) [Example 83, 2-{2-Isopropyl-4-[3-(1-oxido-3,4-dihydro-2H-thiochromen-6-yl)phenyl]-1H-imidazol-5-yl}-6-methylpyridine] |
| 137 to 138 °C | Cc1cccc(-c2[nH]c(C(C)C)nc2-c2cccc(-c3ccc4c(c3)C=CS4(=O)=O)c2)n1 [Example 85, 2-{4-[3-(1,1-Dioxido-1-benzothien-5-yl)phenyl]-2-isopropyl-1H-imidazol-5-yl}-6-methylpyridine] |
| 128 to 131 °C | Cc1cccc(-c2[nH]c(C(C)C)nc2-c2cccc(-c3ccc4c(c3)CCS4(=O)=O)c2)n1 [Example 86, 2-{4-[3-(1,1-Dioxido-2,3-dihydro-1-benzothien-5-yl)phenyl]-2-isopropyl-1H-imidazol-5-yl}-6-methylpyridine] |
| 133 to 136 °C | Cc1cccc(-c2[nH]c(C(C)C)nc2-c2cccc(-c3ccc(NS(=O)(=O)C4CC4)cn3)c2)n1 [Example 87, N-(6-{3-[2-Isopropyl-5-(6-methylpyridin-2-yl)-1H-imidazol-4-yl]phenyl}pyridin-3-yl)cyclopropanesulfonamide] |
| 112 to 114 °C | Cc1cccc(-c2[nH]c(C(C)C)nc2-c2cccc(-c3ccc(S(C)(=O)=O)cn3)c2)n1 [Example 88, 2-{3-[2-Isopropyl-5-(6-methylpyridin-2-yl)-1H-imidazol-4-yl]phenyl}-5-(methylsulfonyl)pyridine] |
| 158 to 161 °C | Cc1cccc(-c2[nH]c(C(C)C)nc2-c2cccc(-n3ccnc3)c2)n1 [Example 90, 2-{4-[3-(1H-Imidazol-1-yl)phenyl]-2-isopropyl-1H-imidazol-5-yl}-6-methylpyridine] |
| 145 °C | Cc1cccc(-c2[nH]c(C(C)C)nc2-c2ccc(F)c(-c3ccc(NC(=O)NN4CCN(C)CC4)cc3)c2)n1 [Example 92, N-{2′-Fluoro-5′-[2-isopropyl-5-(6-methylpyridin-2-yl)-1H-imidazol-4-yl]-1,1′-biphenyl-4-yl}-N′-(4-methylpiperazin-1-yl)urea] |
| 103 to 106 °C | Cc1cccc(-c2[nH]c(C(C)C)nc2-c2ccc(F)c(-c3ccc[nH]3)c2)n1 [Example 93, 2-{4-[4-Fluoro-3-(1H-pyrrol-2-yl)phenyl]-2-isopropyl-1H-imidazol-5-yl}-6-methylpyridine] |
| 145 °C | Cc1cccc(-c2[nH]c(C(C)C)nc2-c2ccc(F)c(-c3ccc(NC(=O)NC4CCN(C)CC4)cc3)c2)n1 [Example 95, N-{2′-Fluoro-5′-[2-isopropyl-5-(6-methylpyridin-2-yl)-1H-imidazol-4-yl]-1,1′-biphenyl-4-yl}-N′-(1-methylpiperidin-4-yl)urea] |
| 109 to 111 °C | Cc1cccc(-c2[nH]c(C(C)C)nc2-c2ccc(F)c(-c3ccc(N4CCOCC4)cc3)c2)n1 [Example 100, 4-{2′-Fluoro-5′-[2-isopropyl-5-(6-methylpyridin-2-yl)-1H-imidazol-4-yl]-1,1′-biphenyl-4-yl}morpholine] |
| 160 to 161 °C | Cc1cccc(-c2[nH]c(C(C)C)nc2-c2ccc(F)c(-c3ccc(C(=O)O)cc3)c2)n1 [Example 101, 2′-Fluoro-5′-[2-isopropyl-5-(6-methylpyridin-2-yl)-1H-imidazol-4-yl]-1,1′-biphenyl-4-carboxylic acid] |

| melting point | SMILES |
| --- | --- |
| 233 to 235 °C | Cc1cccc(-c2[nH]c(C(C)C)nc2-c2ccc(F)c(-c3c[nH]nn3)c2)n1 [Example 106, 2-{4-[4-Fluoro-3-(1H-1,2,3-triazol-4-yl)phenyl]-2-isopropyl-1H-imidazol-5-yl}-6-methylpyridine] |
| 76 to 78 °C | CCn1cc(-c2cc(-c3[nH]c(C(C)C)nc3-c3cccc(C)n3)ccc2F)cn1 [Example 107, 2-{5-[3-(1-Ethyl-1H-pyrazol-4-yl)-4-fluorophenyl]-2-isopropyl-1H-imidazol-4-yl}-6-methylpyridine] |
| 84 to 85 °C | Cc1cccc(-c2nc(C(C)C)[nH]c2-c2ccc(F)c(-c3cnn(C(C)C)c3)c2)n1 [Example 108, 2-{5-[4-Fluoro-3-(1-isopropyl-1H-pyrazol-4-yl)phenyl]-2-isopropyl-1H-imidazol-4-yl}-6-methylpyridine] |
| 119 to 129 °C | Cc1cccc(-c2nc(C(C)C)[nH]c2-c2ccc(F)c(-c3ccc(NS(=O)(=O)C4CC4)cc3)c2)n1 [Example 111, N-{2′-Fluoro-5′-[2-isopropyl-4-(6-methylpyridin-2-yl)-1H-imidazol-5-yl]-1,1′-biphenyl-4-yl}cyclopropanesulfonamide] |
| 78 to 90 °C | Cc1cccc(-c2nc(C(C)C)[nH]c2-c2ccc(F)c(-c3ccco3)c2)n1 [Example 113, 2-{5-[4-Fluoro-3-(2-furyl)phenyl]-2-isopropyl-1H-imidazol-4-yl}-6-methylpyridine] |
| 143 to 145 °C | Cc1cccc(-c2[nH]c(C(C)C)nc2-c2ccc(F)c(-c3ccc(O)cc3)c2)n1 [Example 114, 2′-Fluoro-5′-[2-isopropyl-5-(6-methylpyridin-2-yl)-1H-imidazol-4-yl]-1,1′-biphenyl-4-ol] |
| 106 to 110 °C | Cc1cccc(-c2[nH]c(C(C)C)nc2-c2ccc(F)c(-c3cc[nH]c3)c2)n1 [Example 123, 2-{4-[4-Fluoro-3-(1H-pyrrol-3-yl)phenyl]-2-isopropyl-1H-imidazol-5-yl}-6-methylpyridine] |
| 105 to 108 °C | Cc1cccc(-c2[nH]c(C(C)C)nc2-c2ccc(F)c(-c3ccc(S(C)(=O)=O)cn3)c2)n1 [Example 124, 2-{2-Fluoro-5-[2-isopropyl-5-(6-methylpyridin-2-yl)-1H-imidazol-4-yl]phenyl}-5-(methylsulfonyl)pyridine] |
| 100 to 102 °C | Cc1cccc(-c2[nH]c(C(C)C)nc2-c2ccc(F)c(-c3ccc([S+](C)[O-])nc3)c2)n1 (stereo not shown) [Example 128, 5-{2-Fluoro-5-[2-isopropyl-5-(6-methylpyridin-2-yl)-1H-imidazol-4-yl]phenyl}-2-(methylsulfinyl)pyridine] |
| 102 to 105 °C | Cc1cccc(-c2[nH]c(C(C)C)nc2-c2ccc(F)c(-c3ccc(S(C)(=O)=O)nc3)c2)n1 [Example 129, 5-{2-Fluoro-5-[2-isopropyl-5-(6-methylpyridin-2-yl)-1H-imidazol-4-yl]phenyl}-2-(methylsulfonyl)pyridine] |
| 184 to 186 °C | Cc1cccc(-c2[nH]c(C(C)C)nc2-c2ccc(F)c(-c3nc[nH]n3)c2)n1 [Example 133, 2-{4-[4-Fluoro-3-(1H-1,2,4-triazol-3-yl)phenyl]-2-isopropyl-1H-imidazol-5-yl}-6-methylpyridine] |
| 201 to 205 °C | Cc1cccc(-c2[nH]c(C(C)C)nc2-c2ccc(F)c(-c3ncc[nH]3)c2)n1 [Example 134, 2-{4-[4-Fluoro-3-(1H-imidazol-2-yl)phenyl]-2-isopropyl-1H-imidazol-5-yl}-6-methylpyridine] |
| 195 to 198 °C | Cc1cccc(-c2[nH]c(C(C)C)nc2-c2ccc(F)c(-c3cc[nH]n3)c2)n1 [Example 135, 2-{4-[4-Fluoro-3-(1H-pyrazol-3-yl)phenyl]-2-isopropyl-1H-imidazol-5-yl}-6-methylpyridine] |
| 177 to 180 °C | Cc1cccc(-c2[nH]c(C(C)C)nc2-c2ccc(F)c(-c3c[nH]c(=O)[nH]3)c2)n1 [Example 140, 4-{2-Fluoro-5-[2-isopropyl-5-(6-methylpyridin-2-yl)-1H-imidazol-4-yl]phenyl}-1,3-dihydro-2H-imidazol-2-one] |
| 230 to 234 °C | Cc1cccc(-c2[nH]c(C(C)C)nc2-c2ccc(F)c(-c3c[nH]c(C)n3)c2)n1 [Example 141, 2-{4-[4-Fluoro-3-(2-methyl-1H-imidazol-4-yl)phenyl]-2-isopropyl-1H-imidazol-5-yl}-6-methylpyridine] |
| 170 to 175 °C | CCc1nc(-c2cc(-c3nc(C(C)C)[nH]c3-c3cccc(C)n3)ccc2F)c[nH]1 [Example 142, 2-{4-[3-(2-Ethyl-1H-imidazol-4-yl)-4-fluorophenyl]-2-isopropyl-1H-imidazol-5-yl}-6-methylpyridine] |
| 125 °C | Cc1cccc(-c2n[nH]cc2-c2ccc(F)c(-c3ccc(S(N)(=O)=O)s3)c2)n1 [Example 143, 5-{2-Fluoro-5-[3-(6-methylpyridin-2-yl)-1H-pyrazol-4-yl]phenyl}thiophene-2-sulfonamide] |
